The target in one data set is T1, BuChE (UniProt P81908).
T1 construct: 120 min incubation; BuChE IC50
The format is biochemical, human or equine serum. Here is the method:
(§1) B. Measurement of Acetylcholinesterase (AChE) and Butylcholinesterase (BuChE) Inhibition In Vitro
(§2) The enzyme was incubated at 37° C. with 6-10 concentrations of the compounds tested and samples were collected at 15, 30, 60 and 120 min Aliquots were transferred to an Elisa multiscan microplate reader (Labsystems) at 15-60 sec time intervals for the determination of residual AChE activity, with Ascent PC software. […] The % inhibition of AChE by each concentration was calculated by comparison with the activity of the enzyme in the absence of drug. […] BuChE-inhibitory activity was determined as described above using BuChE (Sigma Israel) with butylthiocholine iodide (BuTh) 0.075M as a substrate.

The target of another data set is T2, AChE (UniProt P23795).
T2 sequence (P23795 1-613): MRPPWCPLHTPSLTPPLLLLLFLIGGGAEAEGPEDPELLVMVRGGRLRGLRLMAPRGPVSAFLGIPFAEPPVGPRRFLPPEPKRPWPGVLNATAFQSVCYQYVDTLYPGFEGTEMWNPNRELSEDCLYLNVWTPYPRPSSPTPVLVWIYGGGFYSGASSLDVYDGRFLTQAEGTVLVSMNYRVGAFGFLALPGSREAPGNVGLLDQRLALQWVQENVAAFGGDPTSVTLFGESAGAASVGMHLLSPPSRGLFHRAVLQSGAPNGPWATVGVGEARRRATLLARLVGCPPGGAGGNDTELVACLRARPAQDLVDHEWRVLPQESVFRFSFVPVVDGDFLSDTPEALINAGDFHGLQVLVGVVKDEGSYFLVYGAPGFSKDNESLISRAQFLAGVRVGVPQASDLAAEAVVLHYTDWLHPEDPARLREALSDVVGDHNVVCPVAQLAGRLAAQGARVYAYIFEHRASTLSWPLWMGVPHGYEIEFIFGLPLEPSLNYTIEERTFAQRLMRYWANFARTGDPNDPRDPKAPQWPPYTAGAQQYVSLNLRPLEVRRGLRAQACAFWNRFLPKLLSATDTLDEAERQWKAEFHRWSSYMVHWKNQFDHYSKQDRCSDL
The format is biochemical, human or bovine erythrocytes. Here is the method: as §1, §2

Data set [1] is described as follows: Radical scavenging, glucose oxidase/luminol luminescence. The format is biochemical. Conditions: concentration reducing luminescence/radical by 50%; mean ± SD, three independent experiments. As for the experimental part:
A. Measurement of Radical Scavenging
A mixture comprising glucose oxidase (GO), luminol, sodium selenite [IV] ([…]) and cobalt [II] (Co^+2) all in Hank's Balance Salt Solution (HBSS) was used (Ginsburg et al, 2004). The production of H2O2 produces a burst of luminescence within 30-60 sec, which lasts for 7-10 min. The luminescence involves oxidation of SEL+5 to it SEL+6 and also the generation of oxidants, which are catalyzed by Co^+2. This method mimics infection and inflammation conditions in which there is an accumulation of several oxidant species. This method provides a source of several radicals. Reduction in luminescence by the compounds is due to their ability to sequester radicals and was measured after addition of several concentrations of each compound. The concentration of each compound that reduced the luminescence by 50% was calculated.

Another data set relates to NO, RAW 264.7 cells. The experiment in a line: NO reduction in LPS-stimulated RAW 264.7 macrophages. It is filed as cell-based, mouse.
Data set [2] concerns TNF-α, BV2 mouse microglial cells. The experiment in a line: TNF-α reduction in LPS-stimulated BV2 microglia. The format is cell-based. Here is the method: The BV2 mouse microglial cells were created by infecting primary mouse microglia with v-raf/v-myc oncogen-carrying retrovirus and donated by Dr. Sigal Fleisher—Berkovich (Ben-Gurion University of the Negev). The cells were cultured in RPMI 1640 containing 0.4 mM L-Glutamine, 10% FCS, 100 units/ml penicillin, 100 μg/ml streptomycin and maintained in a humidified incubator at 37° C. with 5% CO2. For measurement of the effect of compounds on the release of NO the cells were seeded in a density of 80,000 cells/ml and confluence of about 60%, and incubated with test compounds (in the absence of FCS) for […] All the medium was removed and fresh medium containing FCS and LPS (10 μg/ml) added and the cells maintained at 37° C. for 24 h. The release of NO into the medium was determined by measurement of nitrite levels using Griess reagent reaction. For measurement of protein levels of cytokines cells were seeded in a density of 80,000 and incubated with test compounds (in the absence of FCS) and then with LPS as described above. The medium was centrifuged and supernatants collected after 6 h for TNF-α (Biolegend) and after 20 h for IL-6 (Biolegend).

Setting [3] is: read-out: IC50 BuChE 120 min, Table 3, 120 min incubation.
Setting [4] is: Table 3, 120 min incubation, read-out: IC50 AChE 120 min.
Setting [5] is: Table 2, 120 min incubation, read-out: IC50 AChE 120′.
[6] abbreviates: concentration range, None = no reduction up till 100 nM.

Where a name gives a salt, the structure may show the parent alone. Read-outs that look alike come from different tables or passages of the source.

For `CCOC(=O)CCC1CNc2cccc(OC(=O)N(C)CC)c21.O=C(O)CC(O)(CC(=O)O)C(=O)O` (stereo not drawn) [AN-871, Ethyl 3-(4-(ethyl(methyl)carbamoyloxy)indolinium citrate], the values for the IC50 at BuChE (setting [3]) and on AChE (setting [4]) were 0.56 µM and 40.2 µM, respectively.

`CCCCN(C)C(=O)Oc1ccc2c(CCC(=O)OC)c[nH]c2c1` [compound 676, 3-(2-(Methoxycarbonyl)ethyl)-1H-indol-6-yl butylmethylcarbamate]: the IC50 at AChE (setting [5]) came to 33 µM.

As to `CN(C)C(=O)Oc1cccc2ccn(C)c12` [AN-621, Dimethyl-carbamic acid 1-methyl-1H-indol-7-yl ester], the IC50 was determined as 0.33 µM at AChE and 0.3 µM on AChE (setting [5]).

On to `COC(=O)CCC1CN(C)c2cccc(OC(=O)N(C)c3ccc(OC)cc3)c21` (stereo not drawn) [AN-820, 3-(2-(Methoxycarbonyl)ethyl)-1-methylindolin-4-yl 4-methoxyphenylmethyl carbamate hydrochloride], for which the IC50 in data set [1] was 15.3 ± 0.01 µM; on BuChE (setting [3]), greater than 600 µM; at AChE (setting [4]), 246 µM.

Regarding `CCN(CC)C(=O)Oc1ccc2c(c1)CCN2C` [AN-625, Diethyl-carbamic acid 1-methyl-2,3-dihydro-1H indol-5-yl ester], the IC50 on AChE (read-out: IC50 AChE 120′) is 50 µM.

For `CCN(CC)C(=O)Oc1ccc2c(ccn2C)c1` [AN-622, Diethyl-carbamic acid 1-methyl-1H indol-5-yl ester], the 50% inhibitory concentration (IC50) on AChE (read-out: IC50 AChE 120′) was greater than 500 µM.

In the case of `CCN(C)C(=O)Oc1cccc2c1C(CCC(=O)OC)CN2C` (stereo not drawn) [AN-698, 3-(2-(Methoxycarbonyl)ethyl)-1-methylindolin-4-yl ethylmethylcarbamate hydrochloride], the IC50 in data set [1] was found to be 3.13 ± 0.36 µM; on BuChE (setting [3]), 6.8 µM.

For `COc1ccc(N(C)C(=O)Oc2cccc3c2C(CCC(=O)O)CN3C)cc1` (stereo not drawn) [AN-822, hydrochloride], the IC50 in data set [1] is 10.2 ± 4.1 µM; at BuChE (setting [3]), greater than 600 µM.

Consider `COC(=O)CCc1c[nH]c2cc(OC(=O)N(C)c3ccc(OC)cc3)ccc12` [compound 683, Methyl 3-(6-((4-methoxyphenyl)(methyl)carbamoyloxy)-1H-indol-3-yl)propanoate], for which the IC50 on AChE (setting [5]) was greater than 800 µM.

Consider `COc1ccc(N(C)C(=O)Oc2cccc3c2CCN3)cc1` [AN-857, Indolin-4-yl 4-methoxyphenyl(methyl)carbamate hydrochloride], for which the IC50 at BuChE (setting [3]) came to 3.6 µM.

On to “Ethyl 3-(5- ((ethyl(methyl)carbamoyl) oxy)-1H- benzo[d]imidazol-1- yl)propanoate hydrochloride Ethyl 3-(6- ((ethyl(methyl)carbamoyl) oxy)-1H- benzo[d]imidazol-1- yl)propanoate hydrochloride [AN-1257]”, for which the IC50 at BuChE (Table 3, 120 min incubation, read-out: IC50 BuChE 120 min) came out at 0.11 µM. Moreover, in the data set on NO, RAW 264.7 cells, the “Reduction in NO levels, RAW Macrophages % peak reduction” value worked out at 34.5 ± 1.2%. Moreover, the “Reduction in NO levels by at >20%, RAW Macrophages range” value with NO, RAW 264.7 cells (setting [6]) is given as 10^−2-1000 nM.

As to `CCN(C)C(=O)Oc1ccc2c(c1)C(CCC(=O)OC)CN2` (stereo not drawn) [AN-669, 3-(2-(Methoxycarbonyl)ethyl) indolin-5-yl ethylmethylcarbamate], the IC50 on AChE (setting [5]) stood at 660 µM.

On to `CCN(C)C(=O)Oc1cccc2c1NCC2CCC(=O)OC` (stereo not drawn) [AN-852, Methyl 3-(7-(ethyl(methyl)carbamoyloxy)indolin-3-yl)propanoate hydrochloride], for which the IC50 on BuChE (read-out: BuChE IC50, most potent BuChE inhibitors) is 0.08 µM.

The compound `[2H]c1cc2c(cc1O)N(C)CC2CCC(=O)O` (stereo not drawn) [AN-849, Methyl 3-(5-deuteriu-6-hydroxy-1-methylindolin-3-yl) propanoic acid hydrochloride] registered an IC50 in data set [1] of 0.84 ± 0.05 µM.

On to `CCCCN(C)C(=O)Oc1cccc2c1C(CCC(=O)OC)CN2C` (stereo not drawn) [AN-667, 3-(2-(Methoxycarbonyl)ethyl)-1-methylindolin-4-yl butylmethylcarbamate hydrochloride], for which the IC50 in data set [1] amounted to 6.84 ± 0.05 µM; on BuChE (setting [3]) it was 197 µM.

Take `CCN(C)C(=O)Oc1cccc2c1C(CCC(=O)O)CN2C` (stereo not drawn) [AN-699, 3-(4-((Ethyl(methyl)carbamoyl)oxy)-1-methylindolin-3-yl)propanoic acid hydrochloride]: the 50% inhibitory concentration (IC50) came to 1.64 ± 0.06 µM in data set [1] and 9.7 µM on BuChE (setting [3]).

In the case of `COc1ccc(N(C)C(=O)Oc2cccc3[nH]ccc23)cc1`, the melting point lay within 113 to 115 °C.

As for `CCN(C)C(=O)Oc1ccc2c(c1)NCC2` [AN-885, Indolin-6-yl ethyl(methyl)carbamate hydrochloride], the IC50 in data set [1] is 1.15 ± 0.01 µM; on BuChE (setting [3]), 58.7 µM.

`CCN(C)C(=O)Oc1ccc2c(CCC(=O)O)c[nH]c2c1`: the melting point lay in the range of 132 to 136 °C.

Consider `CN(C)C(=O)Oc1cccc2c1CCN2` [AN-856, Indolin-4-yl dimethylcarbamate hydrochloride], for which the values for the IC50 (in data set [1]; at BuChE (setting [3])) were 0.77 ± 0.03 µM and 1.3 µM, respectively.

With `CCN(C)C(=O)Oc1cccc2c1C(CCC(N)=O)CN2` (stereo not drawn) [AN-851, 3-(3-Amino-3-oxopropyl)indolin-4-yl ethyl(methyl)carbamate hydrochloride], the half-maximal inhibitory concentration (IC50) was 2.39 ± 0.4 µM in data set [1] and 8.5 µM at BuChE (setting [3]).

For the compound `COC(=O)/C=C/c1cn(C)c2cc(OC(=O)N(C)c3ccc(OC)cc3)ccc12`, the melting point was in the range of 120 to 125 °C.

For the compound `COc1ccc(N(C)C(=O)Oc2ccc3c(C=O)c[nH]c3c2)cc1`, the melting point was 218 to 220 °C.

`CN(C)C(=O)Oc1cccc2c1CCN2C` [AN-619, Dimethyl-carbamic acid 1-methyl-2,3-dihydro-1H-indol-4-yl ester]: the IC50 at AChE (setting [5]) was determined as 3.5 µM.

As for `CCN(C)C(=O)Oc1cccc2c1c(CCC(=O)OC)cn2C` [AN-629, Methyl 3-(4-((ethyl(methyl)carbamoyl)oxy)-1-methyl-1H-indol-3-yl) propanoate], on AChE (setting [5]), the IC50 was found to be 180 µM.

The compound `CCN(C)C(=O)Oc1ccc2c(C=O)c[nH]c2c1` returned a melting point of 170 to 175 °C.

Turning to `CCN(C)C(=O)Oc1cccc2c(CCC(=O)O)c[nH]c12`, the melting point lay within 98 to 101 °C.

On to `COc1ccc(N(C)C(=O)Oc2cccc3c2C(CCC(=O)O)CN3)cc1` (stereo not drawn) [AN-821, hydrochloride], for which the IC50 in data set [1] came to 4.33 ± 0.06 µM; on BuChE (setting [3]), 417 µM.

Take `CCN(C)C(=O)Oc1ccc2cc[nH]c2c1`: the melting point was 105 to 108 °C.

Turning to `CCN(C)C(=O)Oc1ccc2c(CCC(=O)OC)cn(C)c2c1`, the melting point was in the range of 49 to 52 °C.

Regarding `COc1ccc(N(C)C(=O)Oc2cccc3[nH]cc(CCC(=O)O)c23)cc1`, the melting point lay in the range of 194 to 196 °C.

With `Oc1cccc2c1CCN2` [AN-855, Indolin-4-ol hydrochloride], in data set [2], the “Reduction in TNF-α levels, BV2 Microglia % peak reduction” value is listed as 38.2 ± 3.2%. In data set [2] (setting [6]), the “Reduction in TNF-α levels, BV2 Microglia range” value is 10^−1-100 nM.

In the case of `COc1ccc(N(C)C(=O)Oc2cccc3[nH]cc(C=O)c23)cc1`, the melting point was 173 to 175 °C.

The values above are taken from US9499484B2, “Indole, indoline derivatives, compositions comprising them and uses thereof” (priority 2012, dated 2016).
